Reference: patent publication US5683713A, “Pharmaceutical compositions for topical application” (priority 1993, dated 1997)
Read-outs that look alike come from different tables or passages of the source.

Tests used:
[1] = prior art; cited from earlier work
[2] = 6-carboxylfluorescein, rats; pretreatment of the skin with 4% calcium thioglycolate; cited from earlier work
[3] = Skin irritation / tolerability; settings: thioglycolate esters and amides
[4] = across human skin; cited from earlier work
[5] = In-vitro demonstration of the reaction: conversion of cystine into cysteine, followed by TLC; settings: after 6 hours; room temperature, water pH 7.2, under nitrogen
Protocol: A test was made to check whether the presence of a thioglycolate ester will cause conversion of Cystine into Cysteine: [drawing 1]
In a three necked flask (100 ml), under nitrogen were added 10 ml of water (pH 7.2), 200 mg cystine and 200 mg, of iso-octyl thioglycolate and stirred at room temperature for 24 hours. The reaction was followed by TLC using Silica-Gel precoated plates. As an eluant a mixture of BuOH:H2 O:AcOH in a 10:1:5 ratio respectively was used. The plates were developed by spraying a solution of 5% Ninhydrine in ethanol and heating. […] A control experiment was made under the same conditions but without the Thioglycolate ester. After 20 hours at room temperature no cysteine could be detected.

[6] = not told; cited from earlier work

tetralinhydrofurfuryl alcohol
irritation [1]: cause irritation and edema

O=C(O)CS [calcium thioglycolate]
increase of penetration as compared to the control [2]: 9 times

OCCS [2-Mercaptoethanol]
irritation [1]: very strong irritants

COC(=O)CS [methyl thioglycolate]
irritation [3]: irritants

CCCCCCCCCC[S+](C)[O-] (stereo not shown) [decyl methyl, sulfoxide]
toxicological problems [1]: creates toxicological problems | penetration of sodium methotrexate [4]: enhances the penetration of sodium methotrexate across human skin

CC(C)=O [acetone]
irritation [1]: cause irritation and edema

CC(C)CCCCCOC(=O)CS [iso-octyl thioglycolate, Iso-octyl thioglycolate]
conversion of cystine to cysteine (TLC spot) [5]: a spot corresponding to cysteine was formed and this spot grew as a function of time

C[S+](C)[O-] [Dimethyl sulfoxide]
concentration needed for significant permeation enhancement [6]: > 70%

CCOC(=O)CS [ethyl thioglycolate]
irritation [3]: irritants
